Laboratory results as given in patent publication US7179804B2, “Tachykinin receptor antagonists” (Eli Lilly and Company, priority 2002, dated 2007).

melting point [°C] | SMILES
105 | CC(C)(O)c1onc(-c2ccccc2Cl)c1C(=O)c1nnn(Cc2cc(C(F)(F)F)cc(C(F)(F)F)c2)c1-c1cccnc1 [Example 79, [1-(3,5-bis-trifluoromethyl-benzyl)-5-pyridin-3-yl-1H-[1,2,3]triazol-4-yl]-[3-(2-chloro-phenyl)-5-(1-hydroxy-1-methyl-ethyl)-isoxazol-4-yl]-methanone]
180 | CC(C)(O)c1onc(-c2ccccc2Cl)c1C(=O)c1nnn(Cc2cc(F)cc(C(F)(F)F)c2)c1-c1cccnc1 [Example 211, [3-(2-chloro-phenyl)-5-(1-hydroxy-1-methyl-ethyl)-isoxazol-4-yl]-[1-(3-fluoro-5-trifluoromethyl-benzyl)-5-pyridin-3-yl-1H-[1,2,3]triazol-4-yl]-methanone]

The next lines start with the compound.

SMILES | melting point [°C]
O=C(c1nnn(Cc2cc(C(F)(F)F)cc(C(F)(F)F)c2)c1-n1ccnc1)c1c(CO)noc1-c1ccccc1Cl [Example 269, [1-(3,5-bistrifluoromethylbenzyl)-5-imidazol-1-yl-1H-[1,2,3]triazol-4-yl]-[5-(2-chlorophenyl)-3-hydroxymethyl-isoxazol-4-yl]-methanone] | 148.8
CC(C)(O)c1onc(-c2ccccc2Cl)c1C(=O)c1nnn(Cc2cc(C(F)(F)F)cc(C(F)(F)F)c2)c1N1CCOCC1 [Example 73] | 188
CC(O)c1onc(-c2ccccc2Cl)c1C(=O)c1nnn(Cc2cc(C(F)(F)F)cc(C(F)(F)F)c2)c1N1CCOCC1 (centres unmarked) [Example 81, [1-(3,5-bis-trifluoromethyl-benzyl)-5-morpholin-4-yl-1H-[1,2,3]triazol-4-yl]-[3-(2-chloro-phenyl)-5-(1-hydroxy-ethyl)-isoxazol-4-yl]-methanone] | 145 to 146
